In ChEMBL document CHEMBL2040736, “Design of potent and selective hybrid inhibitors of the mitotic kinase Nek2: structure-activity relationship, structural biology, and cellular activity” (J Med Chem, 2012):

Tests used:
[1] = biological target: Mitogen-activated protein kinase 1 (Homo sapiens) (UniProt P28482); experiment: Inhibition of Erk2 at 1 uM incubated for 30 mins prior to substrate addition study done at apparent ATP Km for enzyme
[2] = biological target: T1, Hepatocyte growth factor receptor (Homo sapiens, UniProt P08581); settings: 1 uM
T1 sequence (P08581 whole entry): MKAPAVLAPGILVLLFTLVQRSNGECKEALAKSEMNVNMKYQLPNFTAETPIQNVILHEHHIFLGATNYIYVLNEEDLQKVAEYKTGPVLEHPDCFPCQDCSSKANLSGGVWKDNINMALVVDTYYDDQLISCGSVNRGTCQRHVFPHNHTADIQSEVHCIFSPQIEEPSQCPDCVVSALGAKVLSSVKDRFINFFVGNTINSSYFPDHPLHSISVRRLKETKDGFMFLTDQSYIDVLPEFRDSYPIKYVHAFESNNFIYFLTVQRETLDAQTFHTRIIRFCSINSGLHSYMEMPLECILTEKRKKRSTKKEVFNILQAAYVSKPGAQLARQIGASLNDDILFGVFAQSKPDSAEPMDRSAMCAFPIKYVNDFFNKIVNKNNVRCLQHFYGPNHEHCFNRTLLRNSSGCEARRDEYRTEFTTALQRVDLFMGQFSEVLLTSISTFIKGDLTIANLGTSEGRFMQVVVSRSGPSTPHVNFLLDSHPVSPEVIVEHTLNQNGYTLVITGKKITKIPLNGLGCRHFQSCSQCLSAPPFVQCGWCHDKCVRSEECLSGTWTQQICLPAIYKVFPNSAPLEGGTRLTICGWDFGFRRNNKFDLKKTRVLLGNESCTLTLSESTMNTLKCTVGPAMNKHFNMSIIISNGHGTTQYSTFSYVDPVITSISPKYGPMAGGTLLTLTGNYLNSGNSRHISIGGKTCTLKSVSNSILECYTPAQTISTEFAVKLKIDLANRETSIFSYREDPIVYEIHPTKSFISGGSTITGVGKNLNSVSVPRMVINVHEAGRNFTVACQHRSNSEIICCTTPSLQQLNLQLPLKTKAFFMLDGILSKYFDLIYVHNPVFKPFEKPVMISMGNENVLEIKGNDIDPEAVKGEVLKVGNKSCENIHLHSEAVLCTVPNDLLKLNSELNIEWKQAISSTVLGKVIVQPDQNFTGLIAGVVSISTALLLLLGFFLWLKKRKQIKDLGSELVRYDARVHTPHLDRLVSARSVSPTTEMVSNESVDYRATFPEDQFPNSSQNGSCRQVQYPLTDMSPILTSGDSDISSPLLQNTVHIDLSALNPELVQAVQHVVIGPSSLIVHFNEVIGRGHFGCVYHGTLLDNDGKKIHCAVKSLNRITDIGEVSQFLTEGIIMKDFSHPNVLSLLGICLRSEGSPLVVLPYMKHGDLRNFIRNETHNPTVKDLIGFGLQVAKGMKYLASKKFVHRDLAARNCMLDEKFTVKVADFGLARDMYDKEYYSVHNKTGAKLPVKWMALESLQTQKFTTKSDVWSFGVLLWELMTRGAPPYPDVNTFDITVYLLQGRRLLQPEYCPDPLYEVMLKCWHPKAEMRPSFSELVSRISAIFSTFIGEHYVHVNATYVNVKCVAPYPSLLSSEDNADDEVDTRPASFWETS

MDA-MB-231 = experiment: Growth inhibition of human MDA-MB-231 cells after 92 hrs by CellTiter-Blue assay; type: functional; settings: MDA-MB-231, 92 h
[3] = biological target: Tyrosine-protein kinase Lck (Homo sapiens, UniProt P06239); experiment: Inhibition of LCK incubated for 30 mins prior to substrate addition study done at apparent ATP Km for enzyme
[4] = biological target: T2, Tyrosine-protein kinase ABL1 (Homo sapiens, UniProt P00519); experiment: Inhibition of ABL at 1 uM incubated for 30 mins prior to substrate addition study done at apparent ATP Km for enzyme
T2 sequence (P00519 whole entry): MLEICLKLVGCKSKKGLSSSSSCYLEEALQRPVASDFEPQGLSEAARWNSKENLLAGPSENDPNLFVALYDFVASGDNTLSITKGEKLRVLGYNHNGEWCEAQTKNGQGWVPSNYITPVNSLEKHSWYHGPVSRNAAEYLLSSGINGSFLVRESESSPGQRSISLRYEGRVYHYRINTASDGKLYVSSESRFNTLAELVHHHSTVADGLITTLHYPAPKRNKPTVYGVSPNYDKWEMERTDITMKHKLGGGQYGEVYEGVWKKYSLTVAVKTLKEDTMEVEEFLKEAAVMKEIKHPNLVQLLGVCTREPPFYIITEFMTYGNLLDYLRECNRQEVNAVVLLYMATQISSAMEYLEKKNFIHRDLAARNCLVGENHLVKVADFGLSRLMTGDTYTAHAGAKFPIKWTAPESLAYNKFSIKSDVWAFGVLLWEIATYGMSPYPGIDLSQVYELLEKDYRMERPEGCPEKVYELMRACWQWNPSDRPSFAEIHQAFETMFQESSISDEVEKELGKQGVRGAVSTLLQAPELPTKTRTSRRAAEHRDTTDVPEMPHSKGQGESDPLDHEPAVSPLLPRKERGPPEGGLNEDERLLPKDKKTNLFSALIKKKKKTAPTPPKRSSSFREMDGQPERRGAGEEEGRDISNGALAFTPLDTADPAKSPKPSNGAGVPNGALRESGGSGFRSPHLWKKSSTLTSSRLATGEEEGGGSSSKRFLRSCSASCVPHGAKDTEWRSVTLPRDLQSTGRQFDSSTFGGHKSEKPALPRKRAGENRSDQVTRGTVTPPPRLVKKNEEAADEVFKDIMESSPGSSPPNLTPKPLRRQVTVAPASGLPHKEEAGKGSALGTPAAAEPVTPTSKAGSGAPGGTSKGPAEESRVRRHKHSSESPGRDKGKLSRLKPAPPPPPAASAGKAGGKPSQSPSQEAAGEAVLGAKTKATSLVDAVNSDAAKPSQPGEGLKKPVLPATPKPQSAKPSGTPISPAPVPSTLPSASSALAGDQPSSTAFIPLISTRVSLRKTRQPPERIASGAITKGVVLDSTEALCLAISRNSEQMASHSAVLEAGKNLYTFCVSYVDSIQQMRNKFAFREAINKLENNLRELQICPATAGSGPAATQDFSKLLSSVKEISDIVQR

[5] = biological target: Mitogen-activated protein kinase 14 (Homo sapiens) (UniProt Q16539); experiment: Inhibition of p38alpha at 1 uM incubated for 30 mins prior to substrate addition study done at apparent ATP Km for enzyme
Mitogen-activated protein kinase 14 (Homo sapiens), sequence (Q16539 whole entry): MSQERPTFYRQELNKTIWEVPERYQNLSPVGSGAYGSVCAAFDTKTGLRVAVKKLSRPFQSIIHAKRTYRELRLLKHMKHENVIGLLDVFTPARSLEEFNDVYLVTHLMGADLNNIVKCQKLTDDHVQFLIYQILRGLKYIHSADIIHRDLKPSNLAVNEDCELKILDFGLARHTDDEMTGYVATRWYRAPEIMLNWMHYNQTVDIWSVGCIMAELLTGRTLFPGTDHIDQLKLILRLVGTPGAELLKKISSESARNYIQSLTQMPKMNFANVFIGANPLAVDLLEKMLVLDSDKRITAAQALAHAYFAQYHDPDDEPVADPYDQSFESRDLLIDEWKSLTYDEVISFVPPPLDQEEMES

[6] = biological target: T3, Serine/threonine-protein kinase Nek2 (Homo sapiens, UniProt P51955)
T3 sequence (P51955 whole entry): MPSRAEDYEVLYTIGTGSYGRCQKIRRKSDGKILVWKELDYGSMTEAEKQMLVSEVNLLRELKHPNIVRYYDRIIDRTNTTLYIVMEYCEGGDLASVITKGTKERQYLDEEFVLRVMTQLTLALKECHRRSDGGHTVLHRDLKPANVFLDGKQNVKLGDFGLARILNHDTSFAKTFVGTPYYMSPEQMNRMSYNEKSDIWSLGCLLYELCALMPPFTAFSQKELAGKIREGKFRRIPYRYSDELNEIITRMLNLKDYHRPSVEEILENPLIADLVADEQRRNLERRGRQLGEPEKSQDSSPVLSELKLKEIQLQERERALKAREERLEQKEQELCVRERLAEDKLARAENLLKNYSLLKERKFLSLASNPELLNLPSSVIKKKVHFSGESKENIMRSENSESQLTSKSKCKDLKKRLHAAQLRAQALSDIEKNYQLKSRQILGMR

[7] = biological target: Tyrosine-protein kinase Fyn (Homo sapiens, UniProt P06241); experiment: Inhibition of FYN incubated for 30 mins prior to substrate addition study done at apparent ATP Km for enzyme
[8] = biological target: Ribosomal protein S6 kinase alpha-1 (Homo sapiens) (UniProt Q15418); experiment: Inhibition of RSK1 at 1 uM incubated for 30 mins prior to substrate addition study done at apparent ATP Km for enzyme
Ribosomal protein S6 kinase alpha-1 (Homo sapiens), sequence (Q15418 whole entry): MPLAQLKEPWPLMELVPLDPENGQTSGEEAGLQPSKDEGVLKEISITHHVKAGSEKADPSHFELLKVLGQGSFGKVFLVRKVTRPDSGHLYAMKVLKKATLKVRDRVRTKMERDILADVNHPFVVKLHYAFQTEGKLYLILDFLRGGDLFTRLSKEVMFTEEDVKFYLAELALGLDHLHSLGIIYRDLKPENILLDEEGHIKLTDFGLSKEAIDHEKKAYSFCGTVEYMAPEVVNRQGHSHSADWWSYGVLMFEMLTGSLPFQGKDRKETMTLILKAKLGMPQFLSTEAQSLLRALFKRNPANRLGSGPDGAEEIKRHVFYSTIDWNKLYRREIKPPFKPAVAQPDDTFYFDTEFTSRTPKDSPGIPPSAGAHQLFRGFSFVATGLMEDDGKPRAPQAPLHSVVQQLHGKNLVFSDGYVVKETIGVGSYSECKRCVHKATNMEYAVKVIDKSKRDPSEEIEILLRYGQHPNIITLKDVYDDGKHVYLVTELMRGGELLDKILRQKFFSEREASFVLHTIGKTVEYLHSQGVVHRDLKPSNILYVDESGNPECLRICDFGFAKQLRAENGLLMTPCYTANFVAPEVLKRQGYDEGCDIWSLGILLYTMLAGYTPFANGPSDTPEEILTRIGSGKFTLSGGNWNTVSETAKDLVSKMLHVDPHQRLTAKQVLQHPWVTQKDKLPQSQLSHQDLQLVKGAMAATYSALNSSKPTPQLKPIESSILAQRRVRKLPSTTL

[9] = biological target: T1, Hepatocyte growth factor receptor; experiment: Inhibition of MET incubated for 30 mins prior to substrate addition study done at apparent ATP Km for enzyme
[10] = Inhibition of PKA at 1 uM incubated for 30 mins prior to substrate addition study done at apparent ATP Km for enzyme
[11] = biological target: Serine/threonine-protein kinase Chk2 (Homo sapiens, UniProt O96017); settings: 1 uM
[12] = biological target: Aurora kinase A (Homo sapiens) (UniProt O14965); settings: 1 uM
[13] = biological target: T2, Tyrosine-protein kinase ABL1; experiment: Inhibition of ABL at 1 uM
[14] = biological target: RAC-alpha serine/threonine-protein kinase (Homo sapiens) (UniProt P31749); experiment: Inhibition of AKT1 at 1 uM incubated for 30 mins prior to substrate addition study done at apparent ATP Km for enzyme
RAC-alpha serine/threonine-protein kinase (Homo sapiens), sequence (P31749 whole entry): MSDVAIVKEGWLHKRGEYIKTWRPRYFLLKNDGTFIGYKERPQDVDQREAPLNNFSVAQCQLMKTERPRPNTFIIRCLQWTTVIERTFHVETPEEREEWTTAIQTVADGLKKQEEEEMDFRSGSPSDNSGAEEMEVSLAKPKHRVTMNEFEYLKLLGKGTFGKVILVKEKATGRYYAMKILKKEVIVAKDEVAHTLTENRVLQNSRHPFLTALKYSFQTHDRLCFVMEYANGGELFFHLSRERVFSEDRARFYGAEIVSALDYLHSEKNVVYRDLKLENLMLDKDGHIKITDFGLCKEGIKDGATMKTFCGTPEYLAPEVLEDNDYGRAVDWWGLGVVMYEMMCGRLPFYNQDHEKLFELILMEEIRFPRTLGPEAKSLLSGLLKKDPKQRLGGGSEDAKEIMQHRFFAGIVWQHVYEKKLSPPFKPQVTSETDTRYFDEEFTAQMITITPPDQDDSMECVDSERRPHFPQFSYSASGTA

[15] = biological target: Serine/threonine-protein kinase Chk1 (Homo sapiens) (UniProt O14757); experiment: Inhibition of CHK1 at 1 uM incubated for 30 mins prior to substrate addition study done at apparent ATP Km for enzyme
[16] = biological target: Protein kinase C zeta type (Homo sapiens) (UniProt Q05513); experiment: Inhibition of PKCzeta at 1 uM incubated for 30 mins prior to substrate addition study done at apparent ATP Km for enzyme
[17] = biological target: Mitogen-activated protein kinase 3 (Homo sapiens) (UniProt P27361); experiment: Inhibition of Erk1 at 1 uM incubated for 30 mins prior to substrate addition study done at apparent ATP Km for enzyme
[18] = biological target: Glycogen synthase kinase-3 beta (Homo sapiens, UniProt P49841); experiment: Inhibition of GSK3beta incubated for 30 mins prior to substrate addition study done at apparent ATP Km for enzyme
Glycogen synthase kinase-3 beta, sequence (P49841 whole entry): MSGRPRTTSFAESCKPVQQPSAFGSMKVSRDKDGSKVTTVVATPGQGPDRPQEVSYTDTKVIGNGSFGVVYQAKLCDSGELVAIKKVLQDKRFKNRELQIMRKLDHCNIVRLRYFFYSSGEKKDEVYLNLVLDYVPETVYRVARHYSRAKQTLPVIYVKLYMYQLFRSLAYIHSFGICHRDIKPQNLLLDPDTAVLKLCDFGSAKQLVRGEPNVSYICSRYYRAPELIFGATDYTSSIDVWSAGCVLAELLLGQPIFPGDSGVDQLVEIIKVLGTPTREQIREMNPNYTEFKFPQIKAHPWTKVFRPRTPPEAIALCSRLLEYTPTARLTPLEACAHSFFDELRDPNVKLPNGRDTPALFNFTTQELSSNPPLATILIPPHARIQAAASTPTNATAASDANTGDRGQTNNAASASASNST

[19] = Inhibition of CH1D at 1 uM incubated for 30 mins prior to substrate addition study done at apparent ATP Km for enzyme
Aurora kinase A = biological target: T4, Aurora kinase A (Homo sapiens, UniProt O14965); experiment: Inhibition of Aurora A kinase by caliper method
T4 sequence (O14965 whole entry): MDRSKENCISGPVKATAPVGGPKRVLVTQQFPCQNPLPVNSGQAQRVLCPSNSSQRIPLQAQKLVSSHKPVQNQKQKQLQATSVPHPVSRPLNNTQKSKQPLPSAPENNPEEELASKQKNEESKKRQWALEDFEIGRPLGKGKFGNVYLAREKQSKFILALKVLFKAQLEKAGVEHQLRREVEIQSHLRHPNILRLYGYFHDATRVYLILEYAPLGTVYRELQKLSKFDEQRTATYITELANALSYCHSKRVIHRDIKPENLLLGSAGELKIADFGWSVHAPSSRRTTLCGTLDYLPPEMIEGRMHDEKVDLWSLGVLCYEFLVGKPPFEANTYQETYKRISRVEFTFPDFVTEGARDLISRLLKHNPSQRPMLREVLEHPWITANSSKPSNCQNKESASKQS

Mitogen-activated protein kinase 1 (Homo sapiens), sequence (P28482 whole entry): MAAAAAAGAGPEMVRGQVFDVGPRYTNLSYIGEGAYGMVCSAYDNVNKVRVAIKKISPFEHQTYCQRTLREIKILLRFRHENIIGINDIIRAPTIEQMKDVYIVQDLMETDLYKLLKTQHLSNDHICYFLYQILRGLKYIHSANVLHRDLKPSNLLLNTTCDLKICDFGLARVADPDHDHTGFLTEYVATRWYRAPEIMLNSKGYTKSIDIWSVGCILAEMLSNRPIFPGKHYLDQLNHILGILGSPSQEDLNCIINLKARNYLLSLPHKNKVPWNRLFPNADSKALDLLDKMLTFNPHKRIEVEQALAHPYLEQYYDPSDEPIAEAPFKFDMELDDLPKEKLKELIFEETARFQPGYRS

**Q.** With C[C@H](/C=C\C(F)(F)F)Oc1cc(-c2cc(-c3cc(CN(C)C)cs3)cnc2N)ccc1C(N)=O as the molecule, how does the inhibition [1] read?
**A.** The inhibition was 11%.

**Q.** And the inhibition [2]?
**A.** Its inhibition is 46%.

**Q.** What about the GI50 (MDA-MB-231) of the same molecule?
**A.** Its GI50 is 4160 nM.

**Q.** And the IC50 [3]?
**A.** Its IC50 is 110 nM.

**Q.** What about the inhibition [4] of the same molecule?
**A.** Its inhibition is 46%.

**Q.** What about the inhibition [5] of the same molecule?
**A.** Its inhibition is 0%.

**Q.** What about the IC50 [6] of the same molecule?
**A.** Its IC50 is 22 nM.

**Q.** What about the IC50 [7] of the same molecule?
**A.** The IC50 was 750 nM.

**Q.** What about the inhibition [8] of the same molecule?
**A.** Its inhibition is 29%.

**Q.** What about the IC50 [9] of the same molecule?
**A.** Its IC50 is 1170 nM.

**Q.** And the inhibition [10]?
**A.** The inhibition was 12%.

**Q.** And the inhibition [11]?
**A.** The inhibition was 32%.

**Q.** What about the inhibition [12] of the same molecule?
**A.** The inhibition was 19%.

**Q.** And the IC50 [13]?
**A.** The IC50 was 1110 nM.

**Q.** And the inhibition [14]?
**A.** Its inhibition is 3%.

**Q.** What about the inhibition [15] of the same molecule?
**A.** The inhibition was 11%.

**Q.** And the inhibition [16]?
**A.** The inhibition was 12%.

**Q.** What about the inhibition [17] of the same molecule?
**A.** Its inhibition is 2%.

**Q.** What about the IC50 [18] of the same molecule?
**A.** The IC50 was 70 nM.

**Q.** And the inhibition [19]?
**A.** The inhibition was 67%.

**Q.** And the IC50 (Aurora kinase A)?
**A.** Its IC50 is 4940 nM.
